Laboratory results as given in US20080131310A1, “Methods for determining effectiveness of waste water tank deodorizers and synthetic waste compositions for use in said methods” (Fuller Brush Company, Inc., priority 2006, published 2008).
Marks after values point to notes of the source that are not given here.

Test system: Escherichia coli strain K12 (ATCC 25253)
Test: Inhibitive evaluation: hydrogen sulfide generation in synthetic waste water media inoculated with E. coli
Assay type: cell-based
Conditions: for H2S in ppm vs. contact times, 24 Hours: 24 hours contact time; for H2S in ppm vs. contact times, 48 Hours: 48 hours contact time; for H2S in ppm vs. contact times, 72 Hours: 72 hours contact time
Protocol: An experiment was conducted to evaluate the effectiveness of recreational vehicle (Black) waste water tank deodorizer in preventing […] degradation processes that result in unpleasant odors. The effectiveness of the tank deodorizer was evaluated through the inhibition of growth using an E. Coli within a synthetic waste water media. This comparison of the respective products inhibition was over selected time periods from 5 to 7 days.
500 grams total of synthetic soil media was prepared having the following ingredients:
RV biodegradable toilet paper (small pieces) . . . 5.0 g • With the exception of the oatmeal and toilet paper, the above ingredients were mixed together and heated to 55° C. with constant mixing for 15 to 20 minutes. The oatmeal and toilet paper were then added and thoroughly mixed in. Mixture is allowed to cool to room temperature, then transferred to the waste water tank/digester test vessel.
Escherichia coli strain K12 (ATCC 25253) was employed.
1. To build up the count of microbes, using a 48-hour Nutrient Broth culture incubated at 37° C. of the E. Coli or other selected organism, the culture must be on at least the fourth consecutive 24-hour transfer before using. Have one tube of the 48-hour culture available for each of the test vessels.
2. Before inoculating the surrogate black waste water tank test vessel containing the synthetic soil media, the number of organisms being utilized was verified to achieve a range no less than a count of log^8 per milliliter. Serial dilutions of the E. coli culture were prepared as follows:
a.) Tube • #1. 1.0 ml organism culture+9.0 ml Nutrient Broth=1/10 • #2. 1.0 ml tube #1 dilution+9.0 ml Nutrient Broth=1/10^−2 • #3. 1.0 ml tube #2 dilution+9.0 ml Nutrient Broth=1/10^−3 • #4. 1.0 ml tube #3 dilution+9.0 ml Nutrient Broth=1/10^−4 • #5. 1.0 ml tube #4 dilution+9.0 ml Nutrient Broth=1/10^−5 • #6. 1.0 ml tube #5 dilution+9.0 ml Nutrient Broth=1/10^−6 • #7. 1.0 ml tube #6 dilution+9.0 ml Nutrient Broth=1/10^−7 • #8. 1.0 ml tube #7 dilution+9.0 ml Nutrient Broth=1/10^−8 • *Note: each dilution was thoroughly mixed before transferring to the next tube. b.) Each dilution was plated by the pour plate method. 1.0 ml of dilution was plated with 10.0 ml TGY pour plate agar. Plates were incubated at 37° C. for 48 hrs before reading for enumeration.
3. Specified amounts of test subject deodorizer from the chart below were added to the test vessel containing the 500 grams of the synthetic soil media and mix thoroughly to assure uniform distribution.
4. 5.0 ml of the E. coli culture from step #1 were added to the test vessel and thoroughly mixed to assure uniform distribution. This brought the organism count to a range to greater than 1.0×10^4 cfu/ml in the 500 g of synthetic soil media.
5. Caps were placed on the test vessels and the vessels were stored at a temperature of 80° F. during the 5 day or more evaluation period. Note: Tests may be performed at various temperatures at the discretion of the investigator. For example, 100° F. incubation may be used to reflect very high summer temperature test environments.
6. At 24 hrs contact time, handling was in such a manner as to minimize movement of the container and sewage inside. The cap was quickly removed from the test vessel and the holding cradle containing the H2S monitor was placed over the mouth of the test vessel for 4 minutes. During the 4 minute testing period the container was maintained as still as possible. • *Note: monitor must be zeroed before each reading taken.
7. After 4 minute of testing was completed, the monitor and cradle were removed from the mouth of the vessel and the cap replaced. Peak gas readings in ppm of H2S were recorded. Steps 6 & 7 were repeated for each test vessel in set.
8. Steps (6-7) were repeated for each of the remaining contact times of 48 hrs, 72 hrs, 96 hrs, 120 hrs. It should be noted that other times could be adopted for standardization of the protocol and that these times are simply preferred. […]

[1] = 0.78 ml/500 g synthetic soil media (8 oz per 40 gal tank), 80° F., peak head space reading, >5 ppm unacceptable

SMILES	H2S in ppm vs. contact times, 24 Hours [1] [ppm]	H2S in ppm vs. contact times, 48 Hours [1] [ppm]	H2S in ppm vs. contact times, 72 Hours [1]	H2S in ppm vs. contact times, 96 Hours (96 hours contact time, 0.78 ml/500 g synthetic soil media (8 oz per 40 gal tank), 80° F., peak head space reading, >5 ppm unacceptable) [ppm]	H2S in ppm vs. contact times, 120 Hours (120 hours contact time, 0.78 ml/500 g synthetic soil media (8 oz per 40 gal tank), 80° F., peak head space reading, >5 ppm unacceptable) [ppm]	Performance in H2S inhibition compared with the Aqua Kem control (over 120 hours, 0.78 ml/500 g synthetic soil media)
O=[N+]([O-])C(Br)(CO)CO [Bronopol, 2-bromo-2-nitropropane-1,3-diol]	0	0	0 ppm	0	0	The * indicates when each active had reached the unacceptable level of odor value. The two best performing actives that were equal to or near the performance of the Aqua Kem control were the Bronopol and Neolone M-10.
C1N2CN3CN1CN(C2)C3 [Hexamethylene-Tetramine]	2	2	48* ppm	–	–	–
